Measurements reported in ChEMBL document CHEMBL1201862, “PubChem BioAssay data set” (2004).
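Test compounds were applied to cells in 96-well plates for 48 hours at 5 doses. Here, GI50 denotes the concentration required for 50% inhibition of growth.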 Active and inactive are the calls of the source. Cut-off read from the data, not from the text of the source: active = GI50 up to about 1.1 µM and inactive = higher.

Tests used:
Assay in all cases: inhibition of tumour cell growth, NCI panel, 48 h
786-0 = system: 786-0
ACHN = system: ACHN
CAKI-1 = system: CAKI-1
COLO 205 = system: COLO 205
EKVX = system: EKVX
KM12 = system: KM12
MOLT-4 = system: MOLT-4
OVCAR-4 = system: OVCAR-4
RPMI-8226 = system: RPMI-8226
SF-268 = system: SF-268
SF-295 = system: SF-295
SF-539 = system: SF-539
SNB-75 = system: SNB-75
SR = system: SR
T47D = system: T47D
BT-549 = system: BT-549
Malme-3M = system: Malme-3M
NCI-H226 = system: NCI-H226
RXF 393 = system: RXF 393

Measured: GI50

O=C(/C=C/c1ccc(Cl)c(Cl)c1)Oc1ccc(/C=C2\CCCCC2=O)cc1
inactive: 786-0 > 100 µM | ACHN > 100 µM | CAKI-1 > 100 µM | COLO 205 > 100 µM | EKVX > 100 µM | KM12 > 100 µM | MOLT-4 24.6 µM | OVCAR-4 > 100 µM | RPMI-8226 67.6 µM | SF-268 39 µM | SF-295 > 100 µM | SF-539 > 100 µM | SNB-75 > 100 µM | SR > 100 µM | T47D > 100 µM

CCOC(=O)c1c[nH]c2cc3c(cc2c1=O)CCS3
inactive: 786-0 > 100 µM | ACHN > 100 µM | BT-549 > 100 µM | CAKI-1 > 100 µM | COLO 205 > 100 µM | EKVX > 100 µM | KM12 > 100 µM | MOLT-4 > 100 µM | Malme-3M > 100 µM | NCI-H226 50.4 µM | OVCAR-4 > 100 µM | RPMI-8226 > 100 µM | RXF 393 57.8 µM | SF-268 > 100 µM | SF-295 > 100 µM | SF-539 > 100 µM | SNB-75 > 100 µM | T47D > 100 µM

CC(C)N1CC2CC(CN(C(=O)c3ccccc3)C2)C1.[O-][Cl+3]([O-])([O-])O
inactive: 786-0 > 100 µM | ACHN > 100 µM | CAKI-1 > 100 µM | COLO 205 > 100 µM | EKVX > 100 µM | KM12 > 100 µM | MOLT-4 > 100 µM | Malme-3M > 100 µM | NCI-H226 72.9 µM | OVCAR-4 > 100 µM | RPMI-8226 > 100 µM | RXF 393 > 100 µM | SF-268 > 100 µM | SF-295 > 100 µM | SF-539 > 100 µM | SNB-75 > 100 µM

COC(=O)CSC(=S)Nc1nnc(NC(=S)SCOC(C)=O)n1C(=S)SCC(=O)OC
inactive: 786-0 > 100 µM | ACHN > 100 µM | BT-549 > 100 µM | CAKI-1 > 100 µM | COLO 205 > 100 µM | EKVX > 100 µM | KM12 > 100 µM | MOLT-4 > 100 µM | OVCAR-4 > 100 µM | RPMI-8226 > 100 µM | RXF 393 > 100 µM | SF-268 > 100 µM | SF-295 > 100 µM | SR > 100 µM

C[C@@H]1O[C@@H]2OCC[C@@H]2C2=C1C(=O)c1ccccc1C2=O
inactive: 786-0 12.3 µM | ACHN 12.2 µM | CAKI-1 15.2 µM | COLO 205 23.9 µM | EKVX 19.8 µM | KM12 15.2 µM | MOLT-4 7.74 µM | Malme-3M 2.19 µM | NCI-H226 26.7 µM | OVCAR-4 4.14 µM | RPMI-8226 7.23 µM | RXF 393 3.46 µM | SF-268 4.97 µM | SF-295 15.8 µM | SF-539 8.85 µM | SNB-75 9.95 µM | SR 4.24 µM | T47D 5.12 µM

O=C(NO)c1ccc(C(=O)NO)cc1
inactive: 786-0 > 100 µM | ACHN > 100 µM | CAKI-1 > 100 µM | COLO 205 49.7 µM | EKVX > 100 µM | KM12 79.8 µM | MOLT-4 24.9 µM | Malme-3M 9.27 µM | NCI-H226 > 100 µM | OVCAR-4 > 100 µM | RPMI-8226 30.1 µM | RXF 393 50.4 µM | SF-268 58.3 µM | SF-295 > 100 µM | SF-539 > 100 µM | SNB-75 8.2 µM | SR 27.4 µM | T47D 30.3 µM

COC1(OC)N=C(N)C2(C#N)C(C)=C3NCN(C)N=C3C12C#N (stereo unspecified)
inactive: 786-0 > 100 µM | ACHN > 100 µM | CAKI-1 > 100 µM | COLO 205 > 100 µM | EKVX > 100 µM | KM12 > 100 µM | Malme-3M > 100 µM | NCI-H226 > 100 µM | RPMI-8226 > 100 µM | RXF 393 > 100 µM | SF-268 > 100 µM | SF-295 > 100 µM | SF-539 > 100 µM | SNB-75 > 100 µM | T47D > 100 µM

COc1ccc(C2S/C(=C\c3cccc([N+](=O)[O-])c3)C(=O)N2NC(=O)Cc2ccccc2)cc1 (stereo unspecified)
inactive: 786-0 > 100 µM | ACHN > 100 µM | CAKI-1 > 100 µM | COLO 205 > 100 µM | KM12 > 100 µM | MOLT-4 > 100 µM | Malme-3M > 100 µM | NCI-H226 > 100 µM | OVCAR-4 > 100 µM | RPMI-8226 > 100 µM | RXF 393 > 100 µM | SF-268 > 100 µM | SF-295 > 100 µM | SF-539 > 100 µM | SNB-75 > 100 µM | SR > 100 µM

O=C1CCCCC1CN1CCCCC1 (stereo unspecified)
inactive: 786-0 > 100 µM | ACHN > 100 µM | BT-549 > 100 µM | CAKI-1 > 100 µM | COLO 205 > 100 µM | EKVX > 100 µM | KM12 > 100 µM | MOLT-4 > 100 µM | Malme-3M > 100 µM | NCI-H226 > 100 µM | OVCAR-4 > 100 µM | RXF 393 > 100 µM | SF-268 > 100 µM | SF-295 > 100 µM | SF-539 > 100 µM | SNB-75 > 100 µM | SR 8.89 µM

CC(=O)CC(O)(C(F)(F)Cl)C(F)(Cl)Cl (stereo unspecified)
inactive: 786-0 > 10 µM | ACHN > 10 µM | CAKI-1 > 10 µM | COLO 205 > 10 µM | EKVX > 10 µM | KM12 > 10 µM | Malme-3M > 10 µM | NCI-H226 > 10 µM | OVCAR-4 > 10 µM | RXF 393 > 10 µM | SF-268 > 10 µM | SF-295 > 10 µM | SF-539 > 10 µM | SNB-75 > 10 µM | T47D > 10 µM

COC(=O)/C=C1/SC(/C(=C(/[O-])OC)[n+]2ccc3ccccc3c2)=NC1=O
inactive: 786-0 > 100 µM | ACHN > 100 µM | CAKI-1 > 100 µM | COLO 205 > 100 µM | EKVX > 100 µM | KM12 > 100 µM | MOLT-4 > 100 µM | Malme-3M > 100 µM | NCI-H226 > 100 µM | RPMI-8226 > 100 µM | RXF 393 > 100 µM | SF-268 > 100 µM | SF-295 > 100 µM | SF-539 23 µM | SNB-75 90.2 µM | SR 63 µM | T47D > 100 µM

CN1CCCCC1CCN1CCCCC1 (stereo unspecified)
inactive: 786-0 > 100 µM | ACHN > 100 µM | BT-549 > 100 µM | CAKI-1 > 100 µM | COLO 205 56.4 µM | EKVX > 100 µM | KM12 > 100 µM | MOLT-4 > 100 µM | Malme-3M > 100 µM | NCI-H226 > 100 µM | OVCAR-4 > 100 µM | RPMI-8226 > 100 µM | RXF 393 > 100 µM | SF-268 > 100 µM | SF-295 > 100 µM | SNB-75 > 100 µM | T47D > 100 µM

COC(=O)C1=C(C(=O)OC)C2C=CC1C1C(Cl)=C(Cl)C21 (stereo unspecified)
inactive: 786-0 > 100 µM | ACHN > 100 µM | CAKI-1 > 100 µM | COLO 205 > 100 µM | EKVX > 100 µM | KM12 > 100 µM | MOLT-4 > 100 µM | Malme-3M > 100 µM | OVCAR-4 > 100 µM | RPMI-8226 > 100 µM | RXF 393 > 100 µM | SF-268 > 100 µM | SF-295 > 100 µM | SF-539 > 100 µM | SNB-75 > 100 µM

COC(=O)[C@H](Cc1ccccc1)NC(=O)N1CCN(C(=O)N[C@@H](Cc2ccccc2)C(=O)OC)CCN(C(=O)N[C@@H](Cc2ccccc2)C(=O)OC)CC1
inactive: 786-0 > 100 µM | ACHN > 100 µM | BT-549 > 100 µM | CAKI-1 > 100 µM | COLO 205 > 100 µM | EKVX > 100 µM | KM12 > 100 µM | MOLT-4 > 100 µM | Malme-3M > 100 µM | NCI-H226 > 100 µM | OVCAR-4 > 100 µM | RPMI-8226 > 100 µM | RXF 393 > 100 µM | SF-268 > 100 µM | SF-295 > 100 µM | SNB-75 > 100 µM | T47D > 100 µM

Cc1cc(S(=O)(=O)O)ccc1/N=N/c1ccc(/N=N/c2c(O)ccc3ccccc23)c(C)c1
inactive: 786-0 21.3 µM | ACHN 92.9 µM | BT-549 > 100 µM | CAKI-1 53.2 µM | COLO 205 > 100 µM | EKVX 82 µM | KM12 31.6 µM | MOLT-4 49.1 µM | Malme-3M > 100 µM | NCI-H226 85.3 µM | OVCAR-4 51.2 µM | RPMI-8226 > 100 µM | RXF 393 > 100 µM | SF-268 55.3 µM | SF-295 94.8 µM | SNB-75 41.6 µM | T47D > 100 µM

Clc1ccccc1C(c1ccccc1)(c1ccccc1)n1ccnc1 [CLOTRIMAZOLE]
inactive: 786-0 14.9 µM | ACHN 10 µM | BT-549 8.05 µM | CAKI-1 17.4 µM | COLO 205 8.99 µM | EKVX 7.93 µM | KM12 11.7 µM | MOLT-4 8.95 µM | Malme-3M 4.8 µM | OVCAR-4 9.82 µM | RPMI-8226 6.32 µM | RXF 393 17.4 µM | SF-268 16.5 µM | SF-295 9.95 µM | SNB-75 16.5 µM | T47D 7.85 µM
